Series [1] is classed as physicochemical. From the text:
(§1) We then proceeded to clone the pediocin operon (pedABCD [43]) from P. acidilactici UL5 into the pSIP-P27 vector for heterologous expression in other lactic acid bacteria, viz., Lactiplantibacillus plantarum WCFS1, Lactococcus cremoris MG1363, and the well-established expression host, E. coli MG1655. The pediocin operon imparted anti-listerial activity to the L. plantarum culture supernatant but not to that of L. cremoris or E. coli (Fig. 1A). Based on the degree of bioactivity, we concluded that the level of recombinant biosynthetic pediocin PA-1 accumulated in L. plantarum culture was similar to that observed for P. acidilactici UL5 and was therefore not pursued further. Thus, for subsequent studies, we isolated pediocin PA-1 from P. acidilactici UL5 directly using the cell adsorption-desorption approach (Fig. S2). […] We attempted to further purify the preparation using reverse-phase high performance liquid chromatography with minimal enhancement in purity but a significant loss in yield (Fig. S3). The peptide recovered after cell adsorption-desorption and dialysis was lyophilized for long-term storage to minimize any loss in activity. The peptide using this method was purified 189-fold with a specific activity of 9,434 AU·mg^−1 as measured by agar-well diffusion method (Fig. 1B; Fig. S2A through C).

Series [2] concerns L. cremoris. Put plainly: Cell-binding assay by flow cytometry. Also on record: species or system Lactococcus cremoris. The following applies: organism printed as L. lactis; signal did not saturate; read-out: Apparent KD. The procedure:
(§2) The binding affinity and avidity of pediocin to various gram-positive and gram-negative bacteria were studied using flow cytometry. Late log-phase cells were washed in the sodium phosphate buffer (5 mM, pH 6.0) and resuspended at an OD600 of 10^–3 in sodium-acetate buffer (25 mM, pH 4.0), sodium phosphate buffer (5 mM, pH 6.0), or sodium phosphate buffer (5 mM, pH 7.4) containing 1% bovine serum albumin (BSA) and 100 mM NaCl. Cells were incubated with varying concentrations of the conjugated peptide at 4°C for 30 min. The unbound peptide was removed by centrifugation, and the pellet was resuspended in its respective binding buffer containing 1% BSA. Flow cytometry was performed on an Attune NxT flow cytometer (Life Technologies/ThermoFisher Scientific, Carlsbad, CA). Data (≥10^4 events were recorded) were recorded using a […] (488 nm) at a voltage of 360 V, and gating was performed on an SSC-A versus SSC-H plot to reduce false events.

Series [3] concerns Bacillus subtilis. Put plainly: Cell-binding assay by flow cytometry. The following applies: maximum mean fluorescence intensity, Hill fit. The procedure:
as §2
Background: A flow cytometer gives signals particle by particle.

Series [4] in a line: Specific activity of partially purified pediocin by agar-well diffusion method. Type of series: cell-based. The following applies: after cell adsorption-desorption and dialysis.
Excerpt: as §1, with “C). […]” for “C).”
For orientation: In agar diffusion tests the substance spreads into inoculated agar from a disc or well.

Series [5] concerns L. casei. Put plainly: Cell-binding assay by flow cytometry. Also on record: species or system Lacticaseibacillus casei. The following applies: signal did not saturate. As for the experimental part: as §2
The subject of series [6] is L. seeligeri. Type of series: cell-based, Listeria seeligeri. The following applies: 24 h. The procedure:
(§3) To determine the potency of the purified pediocin PA-1, we generated kill curves against a range of target bacteria (Fig. 1C). The concentration range tested was 3 pM to 3 μM following 10-fold serial dilutions. […] This is in approximate agreement with the published potency of pediocin PA-1 ([46]). Though the molecular mass of pediocin PA-1 is expected to be 4.5 kDa, we observed the partially purified peptide to migrate with an apparent mass of ~12.5 kDa (Fig. 1B). However, subsequent analysis by LC-MS yielded peaks of multiple m/z with the predominant peak at the expected molecular size of 4.6 kDa (Fig. S4). The purified pediocin PA-1, separated on denaturing but non-reducing SDS-PAGE (since this bacteriocin contains two crucial disulfide bonds), was subjected to agar-overlay assay using L. seeligeri as the indicator organism (Fig. S5).
(§4) The antimicrobial spectrum of pediocin PA-1 was assayed using a kill curve. Cultures grown overnight were resuspended in fresh medium at an OD600 of 0.05. EC50 was determined by incubating cells with varying concentrations of pediocin in a 96-well plate, and growth was measured at 600 nm after 24 h.
Figure S7. Growth inhibition of L. seeligeri by modified and unmodified pediocin PA-1.

In series [7] the test system is L. coryniformis. Nature of the series: Cell-binding assay by flow cytometry. The settings on record: maximum mean fluorescence intensity, Hill fit. Also on record: species or system Lactobacillus coryniformis. As for the experimental part:
as §2

Series [8] deals with L. coryniformis. Type of series: cell-based, Lactobacillus coryniformis. The settings on record: 24 h. As for the experimental part:
as §3, §4

Series [9] relates to E. coli. Nature of the series: Cell-binding assay by flow cytometry. The following applies: negative control species; signal did not saturate; read-out: Apparent KD. Set-up: species or system Escherichia coli. As for the experimental part: as §2

This is an account of results in article PMC13055374, “Engineered antimicrobial-derived peptides to manipulate mixed microbial systems” (Microbiology Spectrum, 2026).

SMILES strings stand for the structures. Marks after values point to notes of the source that are not given here.

Broadly, the EC50 is the concentration giving half of the maximal effect. A higher EC50 goes with lower potency in that assay. As to `CC[C@H](C)[C@@H]1NC(=O)[C@@H](NC(=O)[C@@H](NC(=O)[C@@H](NC(=O)[C@H](C)NC(=O)[C@H](CCCCN)NC(=O)CNC(=O)[C@H](Cc2c[nH]c3ccccc23)NC(=O)[C@H](CC(=O)O)NC(=O)[C@@H](NC(=O)[C@H](CO)NC(=O)[C@@H]2CSSC[C@H](NC(=O)[C@@H](NC(=O)[C@@H](NC(=O)CNC(=O)[C@H](CC(N)=O)NC(=O)CNC(=O)[C@H](Cc3ccc(O)cc3)NC(=O)[C@H](Cc3ccc(O)cc3)NC(=O)[C@@H](N)CCCCN)C(C)C)[C@@H](C)O)C(=O)NCC(=O)N[C@@H](CCCCN)C(=O)N[C@@H](Cc3c[nH]cn3)C(=O)N[C@@H](CO)C(=O)N2)C(C)C)[C@@H](C)O)[C@@H](C)O)CSSC[C@@H](C(=O)O)NC(=O)[C@H](CCCCN)NC(=O)[C@H](Cc2c[nH]cn2)NC(=O)[C@H](CC(N)=O)NC(=O)CNC(=O)[C@H](CCC(N)=O)NC(=O)[C@H](Cc2c[nH]cn2)NC(=O)CNC(=O)CNC(=O)[C@H]([C@@H](C)O)NC(=O)[C@H](C)NC(=O)[C@H](Cc2c[nH]c3ccccc23)NC(=O)[C@H](C)NC(=O)[C@H](CCSC)NC(=O)[C@H](C)NC(=O)CNC(=O)[C@H](CC(N)=O)NC(=O)[C@H](CC(N)=O)NC(=O)[C@H]([C@@H](C)CC)NC1=O` [pediocin PA-1], the “stability of peptide recovered at acidic pH compared with basic pH” value in series [1] is on record as “more stable”. The Kd in series [2], in [5] (read-out: Apparent KD) and in series [9] was more than 2000 nM throughout. The MFImax in [3] is listed as 7 ± 1 ×10^3; in series [5], >2* ×10^3; in series [7] it was 6.3 ± 0.3 ×10^3. Moreover, the specific activity in [4] was 9,434 AU·mg^−1. The EC50 is approximately 13.3 nM in series [6] and approximately 1 nM in [8].
